From PubChem BioAssay (NCI)
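All cell lines were grown in 96-well plates and treated with compound for 48 hours. GI50: concentration for 50% inhibition of growth. TGI: concentration producing complete growth inhibition.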

Columns and labels:
Assay in all cases: NCI tumour cell line growth inhibition, 48 h
786-0 renal = tested on: 786-0 renal
A498 renal = tested on: A498 renal
A549 NSCLC = tested on: A549 NSCLC
ACHN renal = tested on: ACHN renal
BT-549 breast = tested on: BT-549 breast
CAKI-1 renal = tested on: CAKI-1 renal
CCRF-CEM leukemia = tested on: CCRF-CEM leukemia
COLO 205 colon = tested on: COLO 205 colon
DU-145 prostate = tested on: DU-145 prostate
EKVX NSCLC = tested on: EKVX NSCLC
HCC-2998 colon = tested on: HCC-2998 colon
HCT-15 colon = tested on: HCT-15 colon
HL-60(TB) leukemia = tested on: HL-60(TB) leukemia
HOP-62 NSCLC = tested on: HOP-62 NSCLC
HOP-92 NSCLC = tested on: HOP-92 NSCLC
HS 578T breast = tested on: HS 578T breast
HT29 colon = tested on: HT29 colon
IGROV1 ovarian = tested on: IGROV1 ovarian
K-562 leukemia = tested on: K-562 leukemia
KM12 colon = tested on: KM12 colon
LOX IMVI melanoma = tested on: LOX IMVI melanoma
M14 melanoma = tested on: M14 melanoma
MALME-3M melanoma = tested on: MALME-3M melanoma
MCF7 breast = tested on: MCF7 breast
MDA-MB-231 breast = tested on: MDA-MB-231 breast
MDA-MB-435 = tested on: MDA-MB-435
MOLT-4 leukemia = tested on: MOLT-4 leukemia
NCI-H226 lung = tested on: NCI-H226 lung
NCI-H23 lung = tested on: NCI-H23 lung
NCI-H460 lung = tested on: NCI-H460 lung
NCI-H522 lung = tested on: NCI-H522 lung
NCI/ADR-RES ovarian = tested on: NCI/ADR-RES ovarian
OVCAR-4 ovarian = tested on: OVCAR-4 ovarian
OVCAR-5 ovarian = tested on: OVCAR-5 ovarian
PC-3 prostate = tested on: PC-3 prostate
RPMI-8226 leukemia = tested on: RPMI-8226 leukemia
RXF 393 renal = tested on: RXF 393 renal
SF-268 CNS = tested on: SF-268 CNS
SF-295 CNS = tested on: SF-295 CNS
SF-539 CNS = tested on: SF-539 CNS
SK-MEL-2 melanoma = tested on: SK-MEL-2 melanoma
SK-MEL-28 melanoma = tested on: SK-MEL-28 melanoma
SK-MEL-5 melanoma = tested on: SK-MEL-5 melanoma
SK-OV-3 ovarian = tested on: SK-OV-3 ovarian
SN12C renal = tested on: SN12C renal
SNB-19 CNS = tested on: SNB-19 CNS
SNB-75 CNS = tested on: SNB-75 CNS
SR leukemia = tested on: SR leukemia
SW-620 colon = tested on: SW-620 colon
TK-10 renal = tested on: TK-10 renal
U251 CNS = tested on: U251 CNS
UACC-257 melanoma = tested on: UACC-257 melanoma
UACC-62 melanoma = tested on: UACC-62 melanoma
UO-31 renal = tested on: UO-31 renal

## CC1(C)CC[C@]23CC[C@]4(C)[C@H](CC[C@@H]5[C@@]6(C)CCCN(CO)C(C)(C)[C@@H]6CC[C@]54C)[C@H]2[C@H]1OC3
786-0 renal
  GI50: 1.84 µM
  TGI: 3.4 µM
A498 renal
  GI50: 12 µM
  TGI: 25.6 µM
A549 NSCLC
  GI50: 2.76 µM
  TGI: 8.98 µM
ACHN renal
  GI50: 1.87 µM
  TGI: 3.6 µM
BT-549 breast
  GI50: 8.31 µM
  TGI: 26 µM
CAKI-1 renal
  GI50: 1.54 µM
  TGI: 3.3 µM
CCRF-CEM leukemia
  GI50: 3.49 µM
  TGI: > 100 µM
COLO 205 colon
  GI50: 1.7 µM
  TGI: 3.35 µM
DU-145 prostate
  GI50: 3 µM
  TGI: 8.95 µM
EKVX NSCLC
  GI50: 5.7 µM
  TGI: 21.3 µM
HCC-2998 colon
  GI50: 1.76 µM
  TGI: 3.35 µM
HCT-15 colon
  GI50: 1.75 µM
  TGI: 3.71 µM
HL-60(TB) leukemia
  GI50: 2.01 µM
  TGI: 5.07 µM
HOP-62 NSCLC
  GI50: 2.91 µM
  TGI: 12.4 µM
HOP-92 NSCLC
  GI50: 1.68 µM
  TGI: 4.75 µM
HS 578T breast
  GI50: 3.32 µM
  TGI: 17.1 µM
HT29 colon
  GI50: 1.86 µM
  TGI: 3.86 µM
IGROV1 ovarian
  GI50: 1.91 µM
  TGI: 4 µM
K-562 leukemia
  GI50: 2.25 µM
  TGI: > 100 µM
KM12 colon
  GI50: 1.73 µM
  TGI: 3.5 µM
LOX IMVI melanoma
  GI50: 1.57 µM
  TGI: 2.93 µM
M14 melanoma
  GI50: 1.8 µM
  TGI: 4.04 µM
MALME-3M melanoma
  GI50: 2.64 µM
  TGI: 8.69 µM
MCF7 breast
  GI50: 2.2 µM
  TGI: 5.64 µM
MDA-MB-231 breast
  GI50: 1.96 µM
  TGI: 4.5 µM
MDA-MB-435
  GI50: 2.4 µM
  TGI: 6.67 µM
MOLT-4 leukemia
  GI50: 2.99 µM
  TGI: 10.2 µM
NCI-H226 lung
  GI50: 2.62 µM
  TGI: 7.85 µM
NCI-H23 lung
  GI50: 2.19 µM
  TGI: 5.75 µM
NCI-H460 lung
  GI50: 1.88 µM
  TGI: 3.7 µM
NCI-H522 lung
  GI50: 15.9 µM
  TGI: 31.7 µM
NCI/ADR-RES ovarian
  GI50: 2.02 µM
  TGI: 4.6 µM
OVCAR-4 ovarian
  GI50: 3.42 µM
  TGI: 13.4 µM
OVCAR-5 ovarian
  GI50: 2.44 µM
  TGI: 6.7 µM
PC-3 prostate
  GI50: 2.91 µM
  TGI: 13.9 µM
RPMI-8226 leukemia
  GI50: 2.88 µM
  TGI: > 100 µM
RXF 393 renal
  GI50: 3.27 µM
  TGI: 18 µM
SF-268 CNS
  GI50: 6.61 µM
  TGI: 22.8 µM
SF-295 CNS
  GI50: 1.96 µM
  TGI: 3.77 µM
SF-539 CNS
  GI50: 2.15 µM
  TGI: 4.95 µM
SK-MEL-2 melanoma
  GI50: 2.5 µM
  TGI: 7.68 µM
SK-MEL-28 melanoma
  GI50: 1.97 µM
  TGI: 3.78 µM
SK-MEL-5 melanoma
  GI50: 16.1 µM
  TGI: 30.7 µM
SK-OV-3 ovarian
  GI50: 13.9 µM
  TGI: 27.7 µM
SN12C renal
  GI50: 4.89 µM
  TGI: 18.6 µM
SNB-19 CNS
  GI50: 3.09 µM
  TGI: 12 µM
SNB-75 CNS
  GI50: 5.02 µM
  TGI: 19.6 µM
SR leukemia
  GI50: 1.87 µM
  TGI: 13.1 µM
SW-620 colon
  GI50: 1.68 µM
  TGI: 3.24 µM
TK-10 renal
  GI50: 14 µM
  TGI: 28.7 µM
U251 CNS
  GI50: 2.05 µM
  TGI: 4.7 µM
UACC-257 melanoma
  GI50: 10.6 µM
  TGI: 24.6 µM
UACC-62 melanoma
  GI50: 4.83 µM
  TGI: 17.8 µM
UO-31 renal
  GI50: 9.62 µM
  TGI: 23.6 µM
